Tests used:
[1] = system: calpain activity in SH-SY5Y cells; experiment: SH-SY5Y cellular calpain activity, Suc-LLVY-AMC fluorescence assay; assay type: cell-based; conditions: Suc-LLVY-AMC substrate
Procedure, shortened: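 SH-SY5Y cells (1% serum, seeded overnight at 37 C) pre-incubated 30 min with serially diluted compound, then given 100 uM cell-permeable Suc-LLVY-AMC. AMC fluorescence followed continuously on FLIPR; slopes taken as calpain activity, and IC50 from 4-parameter logistic fit of slope versus log concentration.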

Human Calpain 2/NS1 = biological target: T1, Human Calpain 2/NS1 (Homo sapiens, UniProt P17655); experiment: Biochemical inhibition of calpain 2, continuous fluorescence (FRET substrate) assay; conditions: mean; read-out: Human Calpain 2/NS1 1C50 [sic] (nM)_MEAN
T1 sequence (P17655 1-700): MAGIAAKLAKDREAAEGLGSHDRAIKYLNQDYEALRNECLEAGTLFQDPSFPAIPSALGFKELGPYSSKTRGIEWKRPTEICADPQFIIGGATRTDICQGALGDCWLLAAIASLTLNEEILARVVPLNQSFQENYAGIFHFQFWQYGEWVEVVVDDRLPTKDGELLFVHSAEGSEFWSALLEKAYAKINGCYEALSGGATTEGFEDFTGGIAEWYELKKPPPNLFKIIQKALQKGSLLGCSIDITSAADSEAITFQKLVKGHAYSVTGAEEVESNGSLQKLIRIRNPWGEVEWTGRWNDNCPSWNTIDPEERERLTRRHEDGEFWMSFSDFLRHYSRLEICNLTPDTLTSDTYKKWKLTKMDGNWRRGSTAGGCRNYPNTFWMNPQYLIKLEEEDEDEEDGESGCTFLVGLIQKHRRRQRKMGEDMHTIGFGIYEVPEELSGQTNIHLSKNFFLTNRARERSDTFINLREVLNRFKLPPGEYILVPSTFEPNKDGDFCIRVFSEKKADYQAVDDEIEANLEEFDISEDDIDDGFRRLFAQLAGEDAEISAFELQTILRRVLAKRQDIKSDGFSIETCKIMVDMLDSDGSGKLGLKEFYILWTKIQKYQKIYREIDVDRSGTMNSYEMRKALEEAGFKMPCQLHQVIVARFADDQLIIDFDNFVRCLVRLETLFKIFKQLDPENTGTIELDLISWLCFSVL
T1 sequence (P04632 1-268 partner): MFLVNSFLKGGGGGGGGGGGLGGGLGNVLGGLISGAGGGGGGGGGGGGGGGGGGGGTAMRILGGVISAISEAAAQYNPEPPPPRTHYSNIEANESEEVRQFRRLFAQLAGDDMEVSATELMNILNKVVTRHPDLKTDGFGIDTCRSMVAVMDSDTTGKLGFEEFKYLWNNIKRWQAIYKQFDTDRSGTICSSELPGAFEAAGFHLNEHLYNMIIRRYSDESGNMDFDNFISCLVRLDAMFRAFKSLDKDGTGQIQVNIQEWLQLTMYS
Procedure, shortened: (§1)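 Calpains preincubated with inhibitor at 25 °C in 50 mM Tris pH 7.5, 100 mM NaCl, 1 mM DTT; reaction started with 5-FAM/QXL520 FRET peptide plus CaCl2 for activation. Fluorescence (ex 490/em 520 nm) followed 10 min; rates from 1–5 min slopes, IC50 by 4-parameter logistic fit.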

Human Calpain 1/NS1 = biological target: T2, Human Calpain 1/NS1 (Homo sapiens, UniProt P07384); experiment: Biochemical inhibition of calpain 1, continuous fluorescence (FRET substrate) assay; conditions: mean; read-out: Human Calpain 1/NS1 IC50 (nM)_MEAN
T2 sequence (P07384 1-714): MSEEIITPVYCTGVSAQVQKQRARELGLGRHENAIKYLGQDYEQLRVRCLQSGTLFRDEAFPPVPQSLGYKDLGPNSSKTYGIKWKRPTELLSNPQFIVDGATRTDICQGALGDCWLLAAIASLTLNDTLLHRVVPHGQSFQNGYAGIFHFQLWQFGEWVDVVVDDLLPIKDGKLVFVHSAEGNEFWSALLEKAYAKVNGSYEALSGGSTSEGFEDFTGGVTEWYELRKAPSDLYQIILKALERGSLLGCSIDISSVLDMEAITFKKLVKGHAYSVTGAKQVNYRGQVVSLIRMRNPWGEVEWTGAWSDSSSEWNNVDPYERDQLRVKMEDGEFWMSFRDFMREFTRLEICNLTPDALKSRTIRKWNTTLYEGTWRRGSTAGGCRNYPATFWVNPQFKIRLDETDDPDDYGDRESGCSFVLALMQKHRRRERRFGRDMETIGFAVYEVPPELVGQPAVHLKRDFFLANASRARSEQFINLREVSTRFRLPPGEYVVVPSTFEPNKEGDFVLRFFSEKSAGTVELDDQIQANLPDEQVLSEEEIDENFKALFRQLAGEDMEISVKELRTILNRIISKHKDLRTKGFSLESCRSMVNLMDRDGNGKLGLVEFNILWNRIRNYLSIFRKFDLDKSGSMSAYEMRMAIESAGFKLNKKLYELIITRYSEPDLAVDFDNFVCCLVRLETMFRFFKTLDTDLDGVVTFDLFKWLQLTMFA
T2 sequence (P04632 1-268 partner): T1 sequence (P04632 1-268 partner)
Procedure, shortened: as §1

Human Calpain 9/NS1 = biological target: T3, Human Calpain 9/NS1 (Homo sapiens, UniProt O14815); experiment: Biochemical inhibition of calpain 9, continuous fluorescence (FRET substrate) assay; conditions: mean; read-out: Human Calpain 9/NS1 IC50 (nM)_MEAN
T3 sequence (O14815 1-690): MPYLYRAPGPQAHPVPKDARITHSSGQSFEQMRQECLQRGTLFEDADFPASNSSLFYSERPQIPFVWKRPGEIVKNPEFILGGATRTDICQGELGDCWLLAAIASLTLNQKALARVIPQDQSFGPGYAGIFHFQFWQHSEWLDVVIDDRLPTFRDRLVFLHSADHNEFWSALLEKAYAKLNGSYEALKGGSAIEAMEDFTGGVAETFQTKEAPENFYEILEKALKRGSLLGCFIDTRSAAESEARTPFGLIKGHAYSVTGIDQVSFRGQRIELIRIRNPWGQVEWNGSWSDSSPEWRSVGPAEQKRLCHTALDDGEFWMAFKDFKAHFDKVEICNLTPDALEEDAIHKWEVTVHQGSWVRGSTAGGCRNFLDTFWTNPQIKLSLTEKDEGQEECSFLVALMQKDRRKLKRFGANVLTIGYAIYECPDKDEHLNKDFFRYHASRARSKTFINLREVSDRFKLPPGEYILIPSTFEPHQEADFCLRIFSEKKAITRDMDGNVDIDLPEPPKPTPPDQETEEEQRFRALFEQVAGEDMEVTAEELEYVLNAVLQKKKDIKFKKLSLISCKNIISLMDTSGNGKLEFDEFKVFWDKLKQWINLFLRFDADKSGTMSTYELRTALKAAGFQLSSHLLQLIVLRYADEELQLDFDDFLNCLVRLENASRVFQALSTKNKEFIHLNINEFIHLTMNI
T3 sequence (P04632 1-268 partner): T1 sequence (P04632 1-268 partner)
Procedure, shortened: as §1

[2] = system: calpain activity in SH-SY5Y cells (Spectrin); experiment: SH-SY5Y Spectrin cellular calpain inhibition; assay type: cell-based

| IC50 [1] | IC50 (Human Calpain 2/NS1) | IC50 (Human Calpain 1/NS1) | IC50 (Human Calpain 9/NS1) | IC50 [2] | SMILES |
| --- | --- | --- | --- | --- | --- |
| 10 to 25 µM | < 3000 nM | < 3000 nM | < 3000 nM | > 25 µM | O=CC(Cc1ccccc1)NC(=O)c1c(F)cccc1C(F)(F)F (stereo not drawn) [Compound 39, 2-FLUORO-N-(1-OXO-3-PHENYLPROPAN-2-YL)-6-(TRIFLUOROMETHYL)BENZAMIDE] |
| < 10 µM | < 3000 nM | < 3000 nM | < 3000 nM | 10 to 25 µM | Cc1ccc(F)c(C(=O)NC(C=O)Cc2ccccc2)c1Cl (stereo not drawn) [Compound 42, 2-CHLORO-6-FLUORO-3-METHYL-N-(1-OXO-3-PHENYLPROPAN-2-YL)BENZAMIDE] |
| < 10 µM | 3000 to 10000 nM | > 10000 nM | 3000 to 10000 nM | > 25 µM | NC(=O)C(=O)[C@H](Cc1ccccc1)NC(=O)c1ccc(F)cc1 [Compound 28, (S)—N-(4-AMINO-3,4-DIOXO-1-PHENYLBUTAN-2-YL)-4-FLUOROBENZAMIDE] |
